Key:
Human Mer = biological target: T1, Human Mer (Homo sapiens, UniProt Q12866); assay: Human Mer kinase assay (33P radiometric / HTRF KinEase); type: biochemical; conditions: protocols of Examples C-1 and/or C-2
T1 construct: Human Mer (residues R557-E882 with H628Q and R794A, 0.7 nM); purchased Eurofins Pharma Discovery Services UK Limited (KinaseProfiler service)
T1 sequence (Q12866 557-882 limits assumed): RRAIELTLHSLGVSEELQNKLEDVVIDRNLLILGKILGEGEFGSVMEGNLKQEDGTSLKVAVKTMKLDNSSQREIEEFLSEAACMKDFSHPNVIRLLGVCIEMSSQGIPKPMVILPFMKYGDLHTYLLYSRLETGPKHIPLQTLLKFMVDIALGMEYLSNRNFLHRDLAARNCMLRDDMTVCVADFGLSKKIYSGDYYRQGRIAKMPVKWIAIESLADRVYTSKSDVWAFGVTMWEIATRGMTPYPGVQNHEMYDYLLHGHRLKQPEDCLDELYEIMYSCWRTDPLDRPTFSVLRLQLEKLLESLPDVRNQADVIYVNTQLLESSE
In short: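 Two formats yield IC50 values. HTRF KinEase used MER residues 528-999 with ATP at Km (40 μM), 1 μM biotin-peptide, 60 min RT, […], 10 concentrations. 33P filter assay used 0.7 nM Mer R557-E882 (H628Q/R794A), 10 μM ATP, 250 μM peptide, 40 min RT, top 1 μM.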

Human Met = biological target: T2, Human Met (Homo sapiens, UniProt P08581); assay: Human Met kinase assay (33P radiometric / HTRF KinEase); type: biochemical; conditions: protocols of Examples D-1 and/or D-2; read-out: c-Met IC50
T2 construct: Human MET (residues 956-1390)
T2 sequence (P08581 974-1390 limits assumed): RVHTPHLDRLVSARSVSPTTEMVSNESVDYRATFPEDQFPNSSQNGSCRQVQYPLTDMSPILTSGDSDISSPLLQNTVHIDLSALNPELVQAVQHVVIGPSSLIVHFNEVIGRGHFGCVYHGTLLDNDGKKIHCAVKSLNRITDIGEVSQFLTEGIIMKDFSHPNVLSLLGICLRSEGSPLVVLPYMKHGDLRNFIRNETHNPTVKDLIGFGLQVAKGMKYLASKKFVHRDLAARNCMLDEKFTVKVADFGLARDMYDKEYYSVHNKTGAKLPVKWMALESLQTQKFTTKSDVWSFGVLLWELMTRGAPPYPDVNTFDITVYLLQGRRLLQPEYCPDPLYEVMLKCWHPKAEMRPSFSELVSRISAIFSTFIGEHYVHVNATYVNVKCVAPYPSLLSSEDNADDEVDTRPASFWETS
In short: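 Two formats gave IC50s by curve fitting. HTRF KinEase used MET residues 956-1390 with 1 μM biotin-peptide and 3.0 μM ATP (Km) for 40 min at room temperature, ten doses in 3% DMSO, 665/620 nm read. The 33P transfer assay used mutant Met R974-S1390 A1209G/V1290L (3.4 nM), 10 μM ATP, 250 μM peptide, pH 7.0, 40 min, nine doses from 1 μM.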

## COc1cc2nccc(Oc3ccc(NC(=O)c4c(C)n(C)c(C)c(N5CCCCC5)c4=O)cc3F)c2nc1OC [Compound 90, N-[4-[(6,7-dimethoxy-1,5-naphthyridin-4-yl)oxy]-3-fluorophenyl]-1,2,6-trimethyl-4-oxo-5-piperidin-1-ylpyridine-3-carboxamide]
Human Mer
  IC50: ≤ 100 nM
Human Met
  IC50: > 300 nM

## COc1cnc2c(Oc3ccc(NC(=O)c4c(C)nc(C)c(C(N)=O)c4O)cc3F)ccnc2c1 [Compound 91, 3-N-[3-Fluoro-4-[(7-methoxy-1,5-naphthyridin-4-yl)oxy]phenyl]-4-hydroxy-2,6-dimethylpyridine-3,5-dicarboxamide]
Human Mer
  IC50: > 300 nM
Human Met
  IC50: > 300 nM

## COc1cc2nccc(Oc3ccc(NC(=O)c4c(C)n(C)c(C)c(C(=O)O)c4=O)cc3F)c2nc1OC [Compound 92, 5-[[4-[(6,7-Dimethoxy-1,5-naphthyridin-4-yl)oxy]-3-fluorophenyl]carbamoyl]-1,2,6-trimethyl-4-oxopyridine-3-carboxylic acid]
Human Mer
  IC50: > 300 nM
Human Met
  IC50: > 300 nM

## COc1cc2nccc(Oc3ccc(NC(=O)c4c(C)nc(C)c(C(=O)N(C)C)c4O)cc3F)c2nc1OC [Compound 93, 3-N-[4-[(6,7-Dimethoxy-1,5-naphthyridin-4-yl)oxy]-3-fluorophenyl]-4-hydroxy-5-N,5-N,2,6-tetramethylpyridine-3,5-dicarboxamide]
Human Mer
  IC50: > 300 nM
Human Met
  IC50: ≤ 100 nM

## COc1cc2nccc(Oc3ccc(NC(=O)c4c(C)nc(C)c(C(=O)NC(C)C)c4O)cc3F)c2nc1OC [Compound 94, 3-N-[4-[(6,7-Dimethoxy-1,5-naphthyridin-4-yl)oxy]-3-fluorophenyl]-4-hydroxy-2,6-dimethyl-5-N-propan-2-ylpyridine-3,5-dicarboxamide]
Human Mer
  IC50: ≤ 100 nM
Human Met
  IC50: > 300 nM

## COc1cc2nccc(Oc3ccc(NC(=O)c4c(C)n(C)c(C)c(C(=O)N(C)C)c4=O)cc3F)c2nc1OC [Compound 95, 5-N-[4-[(6,7-Dimethoxy-1,5-naphthyridin-4-yl)oxy]-3-fluorophenyl]-3-N,3-N,1,2,6-pentamethyl-4-oxopyridine-3,5-dicarboxamide]
Human Mer
  IC50: > 300 nM
Human Met
  IC50: > 300 nM

## COc1cc2nccc(Oc3ccc(NC(=O)c4c(C)n(C)c(C)c(C(=O)NC5CC5)c4=O)cc3F)c2nc1OC [Compound 96, 3-N-Cyclopropyl-5-N-[4-[(6,7-dimethoxy-1,5-naphthyridin-4-yl)oxy]-3-fluorophenyl]-1,2,6-trimethyl-4-oxopyridine-3,5-dicarboxamide]
Human Mer
  IC50: > 300 nM
Human Met
  IC50: > 300 nM

## CNC(=O)c1c(C)nc(C)c(C(=O)Nc2ccc(Oc3ccnc4cc(OC)c(OC)nc34)c(F)c2)c1O [Compound 97, 3-N-[4-[(6,7-Dimethoxy-1,5-naphthyridin-4-yl)oxy]-3-fluorophenyl]-4-hydroxy-5-N,2,6-trimethylpyridine-3,5-dicarboxamide]
Human Mer
  IC50: > 300 nM
Human Met
  IC50: > 300 nM

## COc1cc2nccc(Oc3ccc(NC(=O)c4c(C)nc(C)c(C(=O)NC5CC5)c4O)cc3F)c2nc1OC [Compound 98, 5-N-Cyclopropyl-3-N-[4-[(6,7-dimethoxy-1,5-naphthyridin-4-yl)oxy]-3-fluorophenyl]-4-hydroxy-2,6-dimethylpyridine-3,5-dicarboxamide]
Human Mer
  IC50: > 300 nM
Human Met
  IC50: > 300 nM

## COc1cc2nccc(Oc3ccc(NC(=O)c4c5n(c(C)c(C6=CCCC6)c4=O)CCOC5)cc3)c2nc1OC [Compound 99, 7-(Cyclopenten-1-yl)-N-[4-[(6,7-dimethoxy-1,5-naphthyridin-4-yl)oxy]phenyl]-6-methyl-8-oxo-3,4-dihydro-1H-pyrido[2,1-c][1,4]oxazine-9-carboxamide]
Human Mer
  IC50: ≤ 100 nM
Human Met
  IC50: ≤ 100 nM

## COc1cc2nccc(Oc3ccc(NC(=O)c4c5n(c(C)c(C6=CCCCC6)c4=O)CCOC5)cc3)c2nc1OC [Compound 100, 7-(Cyclohexen-1-yl)-N-[4-[(6,7-dimethoxy-1,5-naphthyridin-4-yl)oxy]phenyl]-6-methyl-8-oxo-3,4-dihydro-1H-pyrido[2,1-c][1,4]oxazine-9-carboxamide]
Human Mer
  IC50: ≤ 100 nM
Human Met
  IC50: ≤ 100 nM

## COc1cc2nccc(Oc3ccc(NC(=O)c4c5n(cc(C6=CCCCC6)c4=O)CCOC5)cc3)c2nc1OC [Compound G1-5, 7-(Cyclohexen-1-yl)-N-[4-[(6,7-dimethoxy-1,5-naphthyridin-4-yl)oxy]phenyl]-8-oxo-3,4-dihydro-1H-pyrido[2,1-c][1,4]oxazine-9-carboxamide]
Human Mer
  IC50: ≤ 100 nM
Human Met
  IC50: ≤ 100 nM

## COc1cc2nccc(Oc3ccc(NC(=O)c4c5n(cc(C6=CCOCC6)c4=O)CCOC5)cc3)c2nc1OC [Compound G1-8, 7-(3,6-Dihydro-2H-pyran-4-yl)-N-[4-[(6,7-dimethoxy-1,5-naphthyridin-4-yl)oxy]phenyl]-8-oxo-3,4-dihydro-1H-pyrido[2,1-c][1,4]oxazine-9-carboxamide]
Human Mer
  IC50: ≤ 100 nM
Human Met
  IC50: > 300 nM

Reference: patent US20240158393A1, “PYRIDONE COMPOUNDS AND METHODS OF USE” (Exelixis, Inc., priority 2021, published 2024)
